The numbers were not newly measured in patent publication US20070190114A1, “Antioxidant health lozenges” (priority 2006, published 2007), which cites them from elsewhere.

Structures are written as SMILES.

For data set [1] the following is noted: daily dose of 600 mg.
Another data set concerns peripheral lymphocytes. Conditions: peripheral lymphocytes in smokers.
Another data set relates to alveolar macrophages. Conditions: alveolar macrophages in smokers.

Consider `CC(=O)N[C@@H](CS)C(=O)O` [N-acetyl cysteine], for which the cancer chemopreventive effect result in data set [1] is “effective cancer chemopreventive agent”. Take `O=C(O[C@@H]1Cc2c(O)cc(O)cc2O[C@@H]1c1cc(O)c(O)c(O)c1)c1cc(O)c(O)c(O)c1` [epigallocatechin gallate]: the sister-chromatid exchange entry in the data set with peripheral lymphocytes was “stabilize sister-chromatid exchange in peripheral lymphocytes in smokers to a level comparable to non-smokers”.

Take `Oc1ccc(C=Cc2cc(O)cc(O)c2)cc1` [resveratrol]: the “basal release of inflammatory cytokine” value with alveolar macrophages is given as “inhibits basal release of inflammatory cytokine from alveolar macrophages in smokers”.
